{"source": "patent US11389456B2", "about": "“Compounds and methods for treating oxalate-related diseases” (OxaluRx, Inc., priority 2018, dated 2022)", "tested_on": "CD1 mice administered 1% ethylene glycol", "assay": "Mouse ethylene glycol model of hyperoxaluria, urinary oxalate", "format": "in vivo", "settings": "mice, once-daily oral gavage, 100 mg/kg", "method": "Mouse Models of Hyperoxaluria for Determining In Vivo Efficacy of hGOX Inhibitors\nMale CD1 mice, 6-8 weeks of age (Charles River Labs, Wilmington, Mass.) were administered 1% ethylene glycol ad libitum their drinking water for 14 days. The mice were housed in individual cages, fed ad libitum and 24-h urine collections were initiated on days 1, 5, 9 and 14 using a 15-rack metabolic cage system equipped with a CCS2000 chiller system (Hatteras Instruments, Cary, N.C.) to maintain the samples at 4° C. during collection. Hydrochloric acid (100 μL of 6N) added to the collection vials to acidify the samples and prevent degradation of oxalate before evaluation.\nUrine samples were maintained at 4° C. and urinary oxalate concentrations were determined within 24 hours of sample collection using a Trinity Biotech oxalate assay kit (Catalog #591-D). The assay was an enzymatic method based on the oxidation of oxalate by oxalate oxidase followed by measurement of hydrogen peroxide (H2O2) produced during the peroxidase-catalyzed reaction. Briefly, a 1-mL aliquot of each sample was diluted with an equal volume of assay diluent to bring the pH to between 5.0 and 7.0, then placed into purifier tubes (provided in the kit) and mixed for 5 min. The tubes were centrifuged for 5 min at 2000 rpm (1500×g) and the supernatants collected for the oxalate assay. The procedure was specific for oxalate with no special equipment and was easily adaptable for clinical automated analyzers. Each assay included a standard curve prepared with a standardized oxalate control sample (included in the kit) and internal assay control samples for both a normal (0.2-0.3 mmol/L) and elevated (0.86-1.21 mmol/L) level of oxalate.\nTo evaluate in vivo efficacy, mice were dosed by once-daily oral gavage of compound I-002 in an appropriate vehicle (e.g., phosphate-buffered saline, pH 7.4) at a dosage of 100 mg/kg. […]\nThe effect of example I-001 in the ethylene glycol model using CD-1 mice was evaluated by twice-daily, oral gavage dosing at 50 mg/kg for 6 days (days 5-11). […]"}
{"smiles": "CCOC(=O)c1nn[nH]c1Sc1ccc(Cl)cc1", "note": "[Example I-002, Ethyl 5-((4-chlorophenyl)thio)-1H-1,2,3-triazole-4-carboxylate]", "values": [{"measurement": "reduction in urinary oxalate", "result": "statistically significant reduction"}]}
